Measured values published in US20050004044A1, “Use of orsaponin [3beta, 16beta, 17 alpha-trihydroxycholost-5-en-22-one 16-0-(2-0-4-methoxybenzoyl-beta-D-xylopyranosyl)-(1->3)-(2-0-acetyl-alpha-L-arabinopyranoside)] or OSW-1 and its derivatives for cancer therapeutics” (priority 2003, published 2005).

Legend:
[1] = test system: malignant glioma U87-MG cells; experiment: MTT cell growth inhibition, U87-MG glioma; assay type: cell-based, human; details: U87-MG vs normal human astrocytes
Procedure: (§1) 1. MTT Assays. For these assays either cancer cell lines were used. Alternatively, mononuclear cells from peripheral blood samples of CLL patients or normal donors were separated by Ficoll Hipaque fractionation and resuspended in DMEM complete medium. Malignant cells from various human cell lines (usually at 5×10^4 cells/ml) or mononuclear cells from peripheral blood of leukemia patients and healthy donors (1×10^6 cells/ml) were incubated in either αMEM or RPMI 1640 with or without various concentrations of OSW-1 in the range of 0-10 nM. Each experimental condition was done in triplicate. After the indicated number of days (usually 3 days or 72 hours) of exposure to OSW-1, cell survival was assessed by the addition of the MTT dye to the wells. The MTT dye changes its color depending on the presence of live cells in the well. Survival of cells under orsaponin treatment was evaluated as a percentage of control cell growth. Alternatively, one can also use the dye trypan-blue which penetrates dead cells thereby allowing one to count live cells under the microscope and estimating percentage survival.
To test the therapeutic selectivity of Orsaponin and 17-deoxyorsaponin, their effect on human brain tumor cells (U87 malignant glioma) and normal human astrocytes were compared. The normal human astrocytes were previously immortalized by transfection with hTER to allow a long-term culture in vitro. The antiproliferative effect of Orsaponin in human malignant glioma cells (U87-MG) and normal human astrocytes was examined. Cells were incubated with various concentrations of Orsaponin for 72 h. Cell growth inhibition was measured by MTT assay (FIG. 21).

[2] = test system: HCT116 p53+/+ colon cancer cells; experiment: MTT cell growth inhibition, HCT116 p53+/+; assay type: cell-based; details: Homo sapiens, HCT-116, 72 h
Procedure: as §1
(§2) Anticancer activity of 17-deoxyorsaponin in human colon cancer cells was examined. HCT116 p53+/+ and HCT116 p53−/− human colon cancer cells were incubated with the various concentrations of 17-deoxyorsaponin for 72 h. Cell growth inhibition was measured by MTT assay.

[3] = test system: pancreatic cancer (Panco-2) cells; experiment: MTT cell growth inhibition, Panco-2; assay type: cell-based; details: Mus musculus, Panco-2, 72 h
Procedure: as §1
(§3) The effect of Orsaponin and 17-deoxyorsaponin in pancreatic cancer cells was also assessed. […] Cell growth inhibition was measured by MTT assay.

[4] = test system: HCT116 p53−/− colon cancer cells; experiment: MTT cell growth inhibition, HCT116 p53−/−; assay type: cell-based; details: Homo sapiens, HCT-116, 72 h
Procedure: as §1, §2

[5] = test system: ovarian cancer SKOV3 cells; experiment: MTT cell growth inhibition, SKOV3; assay type: cell-based; details: Homo sapiens, SK-OV-3, SKOV3, 72 h
Procedure: FIG. 5. Effect of Orsaponin (OSW-1) on cell growth in human ovarian cancer cells (SKOV3). Human ovarian cancer SKOV3 cells were treated with the indicated concentrations of OSW-1 for 72 h. Cell growth inhibition was measured by the MTT assay. The IC50 value is approximately 0.2 nM under the experimental conditions.
1. MTT Assays. For these assays either cancer cell lines were used. Alternatively, mononuclear cells from peripheral blood samples of CLL patients or normal donors were separated by Ficoll Hipaque fractionation and resuspended in DMEM complete medium. […] After the indicated number of days (usually 3 days or 72 hours) of exposure to OSW-1, cell survival was assessed by the addition of the MTT dye to the wells. […] Survival of cells under orsaponin treatment was evaluated as a percentage of control cell growth. […]
OSW-1 Inhibits Growth of Ovarian Cancer Cells. […] Human ovarian cancer SKOV3 cells were treated with 0-10 nM OSW-1 for 72 h and cell growth inhibition was measured by the MTT assay.
The effect of 17-deoxyorsaponin in human ovarian cancer cells was determined. […] Cell growth inhibition was measured by MTT assay (FIG. 17). […] ML-1 leukemia cells were incubated with various concentrations of 17-deoxyorsaponin for 72 h and cell growth inhibition was measured using the MTT assay (FIG. 18).

[6] = test system: Raji cells (lymphoma); experiment: MTT cell growth inhibition, Raji; assay type: cell-based, human; details: Homo sapiens, 72 h
Procedure: FIG. 2. Effect of Orsaponin (OSW-1) on cell growth in two human cancer cell lines including a leukemia and a lymphoma cell line. HL-60 (leukemia) and Raji cells (lymphoma) in exponentially growing phase were treated with the indicated concentrations of OSW-1 for 72 hours. Cell growth inhibition was measured by MTT assay.
(§4) Cells and Cell Lines. Various cancer cell lines were used including the human leukemia cell lines HL-60 and ML-1 cells; human lymphoma cell line Raji; human pancreatic cancer cells AsPC-1; and human ovarian cancer cells SKOV3; human colon cancer cells HCT116; as well as isolated CLL cells from patients; and lymphocytes from normal donors. Cells were grown and maintained as per protocols known in the art using appropriate cell culture media and supplements.
1. MTT Assays. For these assays either cancer cell lines were used. […] After the indicated number of days (usually 3 days or 72 hours) of exposure to OSW-1, cell survival was assessed by the addition of the MTT dye to the wells. […] Survival of cells under orsaponin treatment was evaluated as a percentage of control cell growth. […]
(§5) Anticancer activities of Orsaponin and 17-deoxyorsaponin were examined in human leukemia cells (ML-1) and human lymphoma cells (Raji). Cells were incubated with various concentrations of Orsaponin and 17-deoxyorsaponin for 72 h, and cell growth inhibition was measured by MTT assay.

[7] = test system: primary CLL cells; experiment: cells; assay type: cell-based; details: Homo sapiens, CLL cell, CLL cells, median of 11 patient samples; read-out: IC50 (nM), Median
Procedure: FIG. 7. Effect of Orsaponin (OSW-1) on cell survival in primary human leukemia cells isolated from patients with chronic lymphocytic leukemia (CLL). Freshly isolated primary CLL cells were incubated with the indicated concentrations of OSW-1 for 72 hours in vitro. Cell viability was measured by MTT assay. […] Data from representative experiments with CLL cells from three different patients are shown. A total of 23 CLL blood samples were tested for sensitivity to OSW-1 in the same fashion.
as §1
Reduction of Cell Viability in CLL-Patient-Derived Cells. […] Freshly isolated primary CLL cells were incubated with the 0-100 nM OSW-1 for 72 hours in vitro and cell viability was measured by the MTT assay.
Cytotoxic activity of 17-deoxyorsaponin was also assessed in a number of patient samples. Primary human leukemia cells isolated from 11 patients with chronic lymphocytic leukemia (CLL) were analyzed for cytotoxic activity of 17-deoxyorsaponin. […]

[8] = test system: pancreatic cancer AsPC-1 cells; experiment: MTT cell growth inhibition, AsPC-1; assay type: cell-based, human; details: Homo sapiens, ASPC1, 72 h, AsPC-1, 72 h
Procedure: FIG. 3. Effect of Orsaponin (OSW-1) on cell growth in human pancreatic cancer cells. Human pancreatic cancer AsPC-1 cells were treated with the indicated concentrations of OSW-1 for 72 h or 96 h. Cell growth inhibition was measured by MTT assay.
FIG. 4. The anticancer activity of Orsaponin (OSW-1) is not affected by NFκB expression in pancreatic cancer cells. Human pancreatic cancer cells AsPC-1 with constitutive activation of NFκB or inactivation of NFκB by dominant negative IκBα (AsPC-1/IκBα-ND) were treated with the indicated concentrations of OSW-1 for 72 h. Cell growth inhibition was measured by MTT assay.
as §4, with “Cells were grown and maintained as per protocols known in the art using appropriate cell culture media and supplements.” left out
1. […] After the indicated number of days (usually 3 days or 72 hours) of exposure to OSW-1, cell survival was assessed by the addition of the MTT dye to the wells. […] Survival of cells under orsaponin treatment was evaluated as a percentage of control cell growth. […]
as §3

[9] = test system: ML-1 leukemia cells; experiment: MTT cell growth inhibition, ML-1; assay type: cell-based, human; details: ML-1, 72 h
Procedure: as §1, §5
The effect of 17-deoxyorsaponin in human ovarian cancer cells was determined. SKOV3 ovarian cancer cells were incubated with various concentrations of 17-deoxyorsaponin for 72 h. Cell growth inhibition was measured by MTT assay (FIG. 17). […] The effect of 17-deoxyorsaponin in human acute myeloid leukemia cells was also examined. ML-1 leukemia cells were incubated with various concentrations of 17-deoxyorsaponin for 72 h and cell growth inhibition was measured using the MTT assay (FIG. 18).

**Q.** How did the “sensitivity of glioma cells compared with normal astrocytes” value [1] turn out when `COc1ccc(C(=O)OC2C(OC3C(O)COC(O[C@H]4C[C@H]5[C@@H]6CC=C7C[C@@H](O)CC[C@]7(C)[C@H]6CC[C@]5(C)[C@H]4[C@H](C)C(=O)CCC(C)C)C3OC(C)=O)OCC(O)C2O)cc1` (stereo partly shown) [17-deoxyorsaponin] was run?
**A.** Its value is “more sensitive”.

**Q.** What about the IC50 [2] of the same compound?
**A.** Its IC50 is ~1 nM.

**Q.** And the IC50 [3]?
**A.** The IC50 was 0.1 nM.

**Q.** What about the IC50 [4] of the same compound?
**A.** Its IC50 is ~1 nM.

**Q.** And the IC50 [5]?
**A.** Its IC50 is ~0.1 nM.

**Q.** And the IC50 [6]?
**A.** Its IC50 is < 0.1 nM.

**Q.** And the IC50 [7]?
**A.** Its IC50 is 0.37 nM.

**Q.** What about the IC50 [8] of the same compound?
**A.** Its IC50 is 1 nM.

**Q.** And the IC50 ([9]; Homo sapiens, 72 h)?
**A.** The IC50 was < 0.1 nM.

**Q.** What about the IC50 [9] of the same compound?
**A.** Its IC50 is ~0.2 nM.
